Source: ChEMBL document CHEMBL1201862, “PubChem BioAssay data set” (2004)
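Step 1: Grow cells in 96-well plates. Step 2: Expose to compound for 48 hours at 5 concentrations. Step 3: Interpolate endpoints linearly; if unreached, use highest concentration. At the GI50, growth is halved.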 Active and inactive are the calls of the source. No stated cut-off is given here; in the data, active = GI50 up to about 1.1 µM and inactive = higher.

What was measured:
Test in all cases: inhibition of tumour cell growth, NCI panel, 48 h
[1] = test system: ACHN
[2] = test system: CAKI-1
[3] = test system: CCRF-CEM
[4] = test system: COLO 205
[5] = test system: HCT-15
[6] = test system: HL-60
[7] = test system: HOP-62
[8] = test system: HOP-92
[9] = test system: Hs-578T
[10] = test system: M14
[11] = test system: MCF7
[12] = test system: MDA-MB-231
[13] = test system: NCI-H226
[14] = test system: NCI-H23
[15] = test system: OVCAR-3
[16] = test system: OVCAR-5
[17] = test system: OVCAR-8
[18] = test system: SF-268
[19] = test system: SNB-75
[20] = test system: UACC-257

SMILES | GI50 [1] | GI50 [2] | GI50 [3] | GI50 [4] | GI50 [5] [µM] | GI50 [6] | GI50 [7] | GI50 [8] | GI50 [9] | GI50 [10] | GI50 [11] | GI50 [12] | GI50 [13] | GI50 [14] | GI50 [15] | GI50 [16] | GI50 [17] | GI50 [18] | GI50 [19] | GI50 [20]
CCC1C(c2cc(OC)c(OC)c(OC)c2)c2cc3c(cc2OC1N1CCCC1)OCO3 (stereo not drawn) | 4.03 µM (inactive) | 0.598 µM (active) | 1.16 µM (inactive) | 1.55 µM (inactive) | 0.984 | 1.57 µM (inactive) | 2.82 µM (inactive) | 4.18 µM (inactive) | 1.36 µM (inactive) | 1.75 µM (inactive) | 0.542 µM (active) | 3.83 µM (inactive) | 3.08 µM (inactive) | 4.46 µM (inactive) | 1.45 µM (inactive) | 8.49 µM (inactive) | 4.07 µM (inactive) | 4.58 µM (inactive) | 2.46 µM (inactive) | 4.59 µM (inactive)
Cc1cc(=O)[nH]c2cc(NC(=O)C(C)NC(=O)C(C)NC(=O)C(C)NC(=O)OC(C)(C)C)ccc12 (stereo not drawn) | > 15 µM (inactive) | > 15 µM (inactive) | > 15 µM (inactive) | > 15 µM (inactive) | > 15 | > 15 µM (inactive) | > 15 µM (inactive) | > 15 µM (inactive) | > 15 µM (inactive) | > 15 µM (inactive) | > 15 µM (inactive) | > 15 µM (inactive) | > 15 µM (inactive) | > 15 µM (inactive) | – | > 15 µM (inactive) | > 15 µM (inactive) | > 15 µM (inactive) | > 15 µM (inactive) | > 15 µM (inactive)
OC(Cc1cnnc2ccccc12)C(Cl)(Cl)Cl (stereo not drawn) | > 10 µM (inactive) | > 10 µM (inactive) | > 10 µM (inactive) | > 10 µM (inactive) | > 10 | > 10 µM (inactive) | > 10 µM (inactive) | > 10 µM (inactive) | > 10 µM (inactive) | > 10 µM (inactive) | > 10 µM (inactive) | > 10 µM (inactive) | > 10 µM (inactive) | > 10 µM (inactive) | > 10 µM (inactive) | – | > 10 µM (inactive) | > 10 µM (inactive) | > 10 µM (inactive) | > 10 µM (inactive)
Cc1ccc2oc(=O)c3c(O)c4cccc(OC5OC(C)C6O[C@@H](c7ccccc7)OC6C5OC5OC(C)C(O)C(O)C5O)c4c4oc(=O)c1c2c34 (stereo partly drawn) | 0.027 µM (active) | 0.138 µM (active) | 0.0182 µM (active) | 0.0675 µM (active) | 0.553 | 0.0536 µM (active) | 0.0452 µM (active) | 0.843 µM (active) | 0.119 µM (active) | 0.187 µM (active) | 0.0324 µM (active) | 0.197 µM (active) | 0.0327 µM (active) | 0.0492 µM (active) | 0.0857 µM (active) | 0.162 µM (active) | < 0.0215 µM (active) | 0.0545 µM (active) | 0.0492 µM (active) | –
CC(C)CCC[C@@H](C)C1CCC2[C@@H]3CCC4CC(CCC=C(c5cc(Cl)c(OC(=O)c6ccccc6)c(C(=O)O)c5)c5cc(Cl)c(OC(=O)c6ccccc6)c(C(=O)O)c5)CC[C@]4(C)C3CC[C@@]21C (stereo partly drawn) | > 100 µM (inactive) | > 100 µM (inactive) | > 100 µM (inactive) | > 100 µM (inactive) | 46.1 | > 100 µM (inactive) | > 100 µM (inactive) | 28.1 µM (inactive) | > 100 µM (inactive) | 15.8 µM (inactive) | > 100 µM (inactive) | 12.6 µM (inactive) | 85.7 µM (inactive) | > 100 µM (inactive) | 74.8 µM (inactive) | > 100 µM (inactive) | > 100 µM (inactive) | – | > 100 µM (inactive) | 58.2 µM (inactive)
Cn1cc(NC(=O)Nc2cc(C(=O)Nc3cc(C(=O)Nc4cc(S(=O)(=O)O)c5cc(S(=O)(=O)O)cc(S(=O)(=O)O)c5c4)n(C)c3)n(C)c2)cc1C(=O)Nc1cc(C(=O)Nc2cc(S(=O)(=O)O)c3cc(S(=O)(=O)O)cc(S(=O)(=O)O)c3c2)n(C)c1 | > 100 µM (inactive) | – | > 100 µM (inactive) | > 100 µM (inactive) | > 100 | > 100 µM (inactive) | > 100 µM (inactive) | 62.7 µM (inactive) | > 100 µM (inactive) | > 100 µM (inactive) | > 100 µM (inactive) | > 100 µM (inactive) | > 100 µM (inactive) | > 100 µM (inactive) | > 100 µM (inactive) | > 100 µM (inactive) | > 100 µM (inactive) | > 100 µM (inactive) | 50.1 µM (inactive) | > 100 µM (inactive)
COc1ccc(C[N+]23C(CC[C@H]2c2ccccc2)CC[C@H]3c2ccccc2)cc1 (stereo partly drawn) | 67.6 µM (inactive) | 75.5 µM (inactive) | 27.5 µM (inactive) | 5.26 µM (inactive) | – | 4.06 µM (inactive) | 21 µM (inactive) | 9.66 µM (inactive) | 27.7 µM (inactive) | 12.9 µM (inactive) | 14.7 µM (inactive) | 28.2 µM (inactive) | 14.1 µM (inactive) | – | 6.04 µM (inactive) | 32.3 µM (inactive) | 22.9 µM (inactive) | 30.3 µM (inactive) | 18.3 µM (inactive) | 5.22 µM (inactive)
